{
  "source": "patent US20200323882A1",
  "about": "“PHLIP®-MEDIATED TARGETING OF CORTICOSTEROIDS TO DISEASED TISSUE” (priority 2019, published 2020)",
  "key": {"[1]": {"test_system": "MCP-1 (monocyte chemoattractant protein)", "method": "CD-1 male mouse, 6 to 7 weeks and 32-38 grams from Charles River Labs were used in the study. […] Briefly, mice were allowed optimal inhalation and passive gravitational flow of LPS directly to the lungs. 50 μg (in 50 μl) LPS was instilled into the nares in five boluses of 10 μl each. […] For processing, a mammalian protease inhibitor cocktail (diluted 1:100 in PBS) was added to each lung sample. Lungs were homogenized by Beadbeater with 2 mm zirconia beads for 1.5 minutes. Homogenates were spun at 10K for 10 minutes at 4° C., and supernatants collected for analysis. Quantikine kit (R&D Systems) assays for JE/MCP-1 were performed as per kit protocols. For the lungs samples, MCP-1 content was expressed as pg/mg of protein. Protein measurements were performed by Pierce™ BCA Protein Assay Kit according to the protocol provided by a manufacturer."}, "[2]": {"test_system": "oxazolone-induced contact hypersensitivity", "conditions": "24 hrs after oxazolone challenge; pHLIP-Dexa 4.6 mg/kg i.p. vs Dexa 0.46 mg/kg i.p. and 20 mg/kg orally", "method": "CD-1 male mouse, 8 to 10 weeks from Charles River Labs were used in the study. Contact hypersensitivity was induced by sensitization and challenge with oxazalone as follows: on day 1, mice are sensitized to oxazalone by application (50 μL; 3% in 100% ethanol) to the abdominal area (previously shaved) and to each footpad (5 μL). On day 6, mice were exposed to oxazalone (20 μL; 1% in 100% ethanol) by application to each side of right ear. Twenty-four hrs after challenge (day 7), dermatitis severity was measured using a visual scale: 0—no evidence of erythema or swelling; 1—mild swelling; 2—mild erythema and moderate selling; 3—erythema and severe swelling. Ear thickness was measured using a micrometer once, prior to sensitization on day 1 (baseline) and once, after dosing on day 7 of the study."}, "[3]": {"test_system": "RPMI 8226 myeloma cells", "conditions": "5 μM pHLIP-Dexa, 2 hrs without FBS, viability after 22 hours", "method": "Myeloma cancer cells were loaded in the wells (30,000 cells/well) and incubated overnight. […] Cell viability was assessed after 22 hours using the colorimetric CellTiter 96 AQueous One Solution Cell Proliferation Assay by absorption measurement at 490 nm."}},
  "note": "Where two headings read alike, the source gives them in different places.",
  "data": [
    {"substance": "pHLIP-(PEG4)-dexamethasone [pHLIP-Dexa]", "values": [
      {"measurement": "reduction of level of MCP-1 protein", "setting": "[1]; dose 4.6 mg/kg in PBS/5% DMSO, 30 minutes after LPS", "value": "very effective in reducing level of MCP-1 protein"},
      {"measurement": "reduction of level of MCP-1 protein", "setting": "[1]; high dose 11.4 mg/kg in PBS/5% DMSO", "value": "less effective"},
      {"measurement": "decrease of thickness of animal ear", "setting": "[2]", "value": "as effective as high and low doses of Dexa"},
      {"measurement": "reduction of inflammation (dermatitis severity, scale 0 to 3)", "setting": "[2]", "value": "as effective as high and low doses of Dexa"},
      {"measurement": "myeloma cancer cell viability, pHLIP-Dexa alone", "setting": "[3]", "value": "induced myeloma cancer cells death"}
    ]}
  ]
}
